{
  "source": "patent US20120141601A1",
  "about": "“DIETARY SUPPLEMENT, FEED AND PHARMACEUTICAL COMPOSITION CONTAINING CHIA SEED AND MACA, AND PREPARATION METHOD THEREOF” (priority 2009, published 2012)",
  "assay_type_in_all_cases": "in vivo, Sprague-Dawley male rats",
  "key": {"[1]": {"assay": "Rotarod performance test for space perception and endurance", "protocol": "(§1) Sprague-Dawley male rats (Orientbio) were divided into groups of six which were then administered for 26 days with neither alcohol nor the extracts for the normal group, with alcohol but not with extracts for the control group, with alcohol and 1% by weight octacosanol, with alcohol and 1% by weight chia seeds, with alcohol and 0.5% by weight maca, and with alcohol and a mixture of 1% by weight chia seeds and 0.5% by weight maca, respectively. Typical feedstuff was fed, together with water, to the normal group and, together with 25% alcohol, to the control group while the feedstuff for the other groups contained the test substances as described above.\nThe groups set in Test Example 3 were measured for space perception activity by the rotarod performance test which was conducted for 5 min for each rat with the cylinder (380×260×420 mm) of rotarod LE8300 (LETICA, SPAIN) rotating at a speed of 4 to 40 rpm. Cases in which the rats fell on the ground within 20 sec after starting were excluded from the measurement.\nTo investigate the effect of chia seeds and maca (extract), used as active ingredients in the composition of the present invention, on space perception and endurance, measurements of the rotarod performance test were analyzed. […] In contrast, the time was 98.16±11.35 sec for octacosanol-administered group, 151.50±5.08 sec for the chia seed-administered group, 215.33±13.14 sec for the maca-administered group and 240.66±39.30 sec for the group co-administered with chia seeds and maca, which were increased by 3, 5, 7, and 8 times, respectively, compared to the control group. As apparent from the data of the rotarod performance test, space perception and endurance were enhanced by octacosanol, chia seeds, maca, and a combination of chia seeds and maca, and most increased, inter alia, by the mixture of chia seeds and maca (FIG. 6, Table 2)."}, "alcohol dehydrogenase": {"tested_on": "alcohol dehydrogenase", "assay": "Hepatic alcohol dehydrogenase activity in liver homogenate", "settings": "liver homogenate supernatant, absorbance at 340 nm; groups of Test Example 3", "protocol": "as §1\n(§2) In order to investigate the effect of the composition of the present invention on alcoholysis enzymes, the rats of the test groups set in Test Example 3 were anesthetized with chloroform and subjected to ventrotomy to excise the liver. The liver tissue was homogenized in 10 volumes of 100 mM sodium phosphate buffer, pH 7.4, using a homogenizer and then disrupted with an ultrasonicator. Centrifugation at 700 G for […] removed nuclei and cell debris. After centrifugation at 9,000 G for 20 min, the supernatant was measured for hepatic alcohol dehydrogenase and aldehyde dehydrogenase activity. The protein concentration of the supernatant was determined using a BCA kit and used to normalize the amount of liver tissue between test groups. […]"}, "[2]": {"tested_on": "high-density lipoproteins", "assay": "High-density lipoprotein level in whole blood", "settings": "25% alcohol daily for 25 days, whole blood from the heart", "protocol": "as §1\n(§3) After the rats of the test groups set in Test Example 3 were administered with 25% alcohol every day for 25 days, blood samples were taken from the tail vein and measured for testosterone level using enzyme immunoassay (Roche, USA). The levels of testosterone and high-density lipoproteins in the whole blood taken from the heart were measured in Eone Reference Laboratory.\nTo investigate the effect of chia seeds and maca (extract), used as active ingredients in the composition of the present invention, on penile function, the levels of high-density lipoproteins were analyzed. […]"}, "aldehyde dehydrogenase": {"tested_on": "aldehyde dehydrogenase", "assay": "Hepatic aldehyde dehydrogenase activity in liver homogenate", "settings": "liver homogenate supernatant, absorbance at 340 nm; groups of Test Example 3", "protocol": "as §1, §2"}, "testosterone": {"tested_on": "testosterone", "assay": "Testosterone level in whole blood", "settings": "25% alcohol daily for 25 days, whole blood from the heart", "protocol": "as §1, §3\nTo investigate the effect of chia seeds and maca (extract), used as active ingredients in the composition of the present invention, on testosterone activity, the levels of testosterone in whole blood were analyzed. […]"}, "[3]": {"assay": "Endurance test, weighted swimming in bath", "protocol": "as §1\nA swimming experiment was conducted in a transparent acryl bath (with a dimension of length 80 cm×width 50 cm×depth 90 cm) ⅔ filled with water maintained at 24° C. The Sprague-Dawley male rats (Orientbio) were allowed to freely swim with a weight equivalent to 8˜10% of their body weight suspended from the abdomen thereof. Measurements were made of the time it took for the rat to swim to a point at which the head was submerged for 10 sec or longer below the water surface (Hong, S. G., J. Kor. Food Sci. Nutr. 32(7), 1076 (2003)).\nTo investigate the effects of chia seeds and maca (extract), used as active ingredients in the composition of the present invention, on endurance, measurements of the swing time were analyzed. The swimming time was measured to be 306.33±6.21 sec for the normal group, but 147.16±21.71 sec for the control group, which was equivalent to about 46% of that of the normal group. In contrast, 352.66±34.69 sec was measured for the octacosanol-administered group, 355.66±34.62 sec for the chia seed-administered group, 476.00±45.56 sec for the maca-administered group, and 527.83±25.57 sec for the group co-administered with chia seeds and mace, which were increased by 2.4, 2.4, 3.2 and 3.5 times, compared to the control group. […]"}, "[4]": {"assay": "Blood alcohol concentration", "protocol": "as §1\nBlood alcohol concentrations were measured after the rats were administered 25% alcohol every day for 30 days. In this regard, blood samples were taken from the tail vein of the rats of the test groups set in Test Example 3 at 6 P.M. every five days, and blood alcohol concentrations were determined using an alcohol tester (Asia Commerce Co. Ltd., Model No. LION SD-400).\nTo investigate the effect of chia seeds and maca (extract), used as active ingredients in the composition of the present invention, on the degradation of blood alcohol, measurements of the blood alcohol concentration were analyzed. The blood alcohol concentration was 0% for the normal group and 0.06% for the control group. […]"}, "[5]": {"assay": "Locomotor activity, open field test", "protocol": "as §1\nThe locomotor activities of the groups set in Test Example 3 were measured in an open field test chamber (38.0 cm×26.0 cm×42.0 cm; LETICA, SPAIN). Horizontal activity was recorded by an IR detector for 10 min To investigate the effects that chia seeds and maca (extract), used as active ingredients in the composition of the present invention, had on locomotor activity, measurements of the horizontal activity were analyzed. The horizontal activity was 1179.2±21.2 cm for the normal group, but […] for the control group, which was decreased by about 75% compared to the normal. […]"}},
  "data": [
    {"smiles": "CCCCCCCCCCCCCCCCCCCCCCCCCCCCO", "note": "[octacosanol]", "values": [
      {"measurement": "time on rotarod", "setting": "[1]; Table 2, rotarod performance test", "value": "98.16 ± 11.35", "unit": "s"},
      {"measurement": "time that the rats stayed on the rotating cylinder", "setting": "[1]; rotarod 4 to 40 rpm, 5 min, groups of Test Example 3", "value": "98.16 ± 11.35", "unit": "s"},
      {"measurement": "increase of time on rotating cylinder compared to the control group", "setting": "[1]; vs alcohol control group", "value": 3, "unit": "times"},
      {"measurement": "alcohol dehydrogenase activity", "setting": "alcohol dehydrogenase", "value": "8.9±0.8", "unit": "mmole/min/mg protein"},
      {"measurement": "level of high-density lipoproteins", "setting": "[2]", "value": "32.5 ± 1.5", "unit": "mg/dL"},
      {"measurement": "aldehyde dehydrogenase activity", "setting": "aldehyde dehydrogenase", "value": "9.8±1.4", "unit": "mmole/min/mg protein"},
      {"measurement": "level of testosterone in whole blood", "setting": "testosterone", "value": "195 ± 62.2", "unit": "ng/dL"},
      {"measurement": "swimming time", "setting": "[3]; 26 days, alcohol plus 1% octacosanol, 1% chia seeds, 0.5% maca or 1% chia seeds + 0.5% maca in feed, weight 8-10% of body weight", "value": "352.66 ± 34.69", "unit": "s"},
      {"measurement": "swimming time", "setting": "[3]; Table 1, endurance test with swimming in bath", "value": "352.66 ± 34.69", "unit": "s"},
      {"measurement": "increase of swimming time compared to the control group", "setting": "[3]; vs alcohol control group", "value": 2.4, "unit": "times"},
      {"measurement": "blood alcohol concentration", "setting": "[4]; 25% alcohol daily for 30 days, tail vein blood, groups of Test Example 3", "value": 0.034, "unit": "%"},
      {"measurement": "decrease of blood alcohol concentration compared to the control group", "setting": "[4]; vs alcohol control group", "value": 55, "unit": "%"},
      {"measurement": "horizontal activity", "setting": "[5]; open field, IR detector, 10 min, groups of Test Example 3", "value": "240.2±12.3", "unit": "cm"},
      {"measurement": "increase of horizontal activity compared to the control group", "setting": "[5]; vs alcohol control group", "value": 8, "unit": "times"}
    ]}
  ]
}
